Experimental data taken from ChEMBL document CHEMBL1909046, “DrugMatrix in vitro pharmacology data”.

Experiments:
[1] = target: Epidermal growth factor receptor (Homo sapiens, UniProt P00533); assay: DRUGMATRIX: Protein Tyrosine Kinase, EGF Receptor enzyme inhibition (substrate: Poly(Glu:Tyr)); format: cell-based, Insect cells; conditions: insect cells; Not Active = under 50% inhibition at 10 µM
[2] = target: T1, Vasoactive intestinal polypeptide receptor 1 (Homo sapiens, UniProt P32241); format: cell membranes, Membrane; conditions: ht-29; note: in other assays of this panel Not Active means under 50% inhibition at 10 µM
T1 sequence (P32241 whole entry): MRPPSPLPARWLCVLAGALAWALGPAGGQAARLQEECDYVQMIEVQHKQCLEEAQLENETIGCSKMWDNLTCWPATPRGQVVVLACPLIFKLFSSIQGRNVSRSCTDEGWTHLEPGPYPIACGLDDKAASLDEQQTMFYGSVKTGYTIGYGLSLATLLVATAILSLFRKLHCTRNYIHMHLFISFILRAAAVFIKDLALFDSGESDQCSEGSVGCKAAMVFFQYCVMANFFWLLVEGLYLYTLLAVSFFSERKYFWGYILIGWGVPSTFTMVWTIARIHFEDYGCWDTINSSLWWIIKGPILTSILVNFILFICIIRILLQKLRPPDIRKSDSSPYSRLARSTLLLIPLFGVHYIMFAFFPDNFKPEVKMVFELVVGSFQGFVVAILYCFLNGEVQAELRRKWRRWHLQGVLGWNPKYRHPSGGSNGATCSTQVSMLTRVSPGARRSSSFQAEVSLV

[3] = target: T2, Cholecystokinin receptor type A (Homo sapiens, UniProt P32238); format: cell membranes, Membrane; conditions: 1321-n1; note: in other assays of this panel Not Active means under 50% inhibition at 10 µM
T2 sequence (P32238 whole entry): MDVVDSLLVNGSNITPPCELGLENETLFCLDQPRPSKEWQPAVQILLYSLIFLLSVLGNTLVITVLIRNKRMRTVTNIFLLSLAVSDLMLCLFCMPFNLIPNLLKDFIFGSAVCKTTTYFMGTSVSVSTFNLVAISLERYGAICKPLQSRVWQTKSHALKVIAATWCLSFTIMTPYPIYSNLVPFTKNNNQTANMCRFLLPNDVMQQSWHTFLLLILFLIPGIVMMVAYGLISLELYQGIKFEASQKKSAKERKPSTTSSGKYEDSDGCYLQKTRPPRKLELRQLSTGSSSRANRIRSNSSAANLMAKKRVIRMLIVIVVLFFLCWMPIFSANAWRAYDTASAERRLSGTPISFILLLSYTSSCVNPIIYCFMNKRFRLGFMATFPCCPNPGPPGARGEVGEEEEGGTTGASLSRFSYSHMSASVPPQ

Melanocortin receptor 5 = Melanocortin receptor 5 (Homo sapiens, UniProt P33032); format: cell membranes, HEK293, Membrane; conditions: hek293; note: in other assays of this panel Not Active means under 50% inhibition at 10 µM
Substance-P receptor = Substance-P receptor (Homo sapiens, UniProt P25103); format: cell membranes, CHO, Membrane; conditions: cho; note: in other assays of this panel Not Active means under 50% inhibition at 10 µM
[4] = target: T3, Neuropeptide Y receptor type 2 (Homo sapiens, UniProt P49146); format: cell membranes, Membrane; conditions: kan-ts; note: in other assays of this panel Not Active means under 50% inhibition at 10 µM
T3 sequence (P49146 whole entry): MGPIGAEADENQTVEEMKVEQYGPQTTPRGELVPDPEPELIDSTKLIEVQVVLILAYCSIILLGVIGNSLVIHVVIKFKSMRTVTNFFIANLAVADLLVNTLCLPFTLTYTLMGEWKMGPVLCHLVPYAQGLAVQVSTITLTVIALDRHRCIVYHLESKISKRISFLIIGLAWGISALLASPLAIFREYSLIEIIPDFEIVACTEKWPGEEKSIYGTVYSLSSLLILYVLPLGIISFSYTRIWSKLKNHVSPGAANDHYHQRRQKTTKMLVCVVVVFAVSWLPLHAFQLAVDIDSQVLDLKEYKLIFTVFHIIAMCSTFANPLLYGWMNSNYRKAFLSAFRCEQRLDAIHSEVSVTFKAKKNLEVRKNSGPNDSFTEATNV

Measured: IC50

Chain of Substance-P receptor (P25103 whole entry): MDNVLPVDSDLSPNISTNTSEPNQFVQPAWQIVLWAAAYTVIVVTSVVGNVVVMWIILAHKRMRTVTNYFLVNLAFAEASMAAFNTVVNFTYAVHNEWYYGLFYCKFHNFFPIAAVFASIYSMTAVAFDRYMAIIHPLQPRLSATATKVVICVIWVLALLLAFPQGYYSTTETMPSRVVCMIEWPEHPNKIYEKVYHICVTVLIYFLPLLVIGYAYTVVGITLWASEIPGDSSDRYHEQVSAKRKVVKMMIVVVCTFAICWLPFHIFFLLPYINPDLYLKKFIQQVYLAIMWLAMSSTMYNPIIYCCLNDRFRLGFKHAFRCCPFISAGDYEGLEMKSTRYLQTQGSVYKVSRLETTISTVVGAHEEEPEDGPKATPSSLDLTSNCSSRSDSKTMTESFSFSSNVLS
Chain of Melanocortin receptor 5 (P33032 whole entry): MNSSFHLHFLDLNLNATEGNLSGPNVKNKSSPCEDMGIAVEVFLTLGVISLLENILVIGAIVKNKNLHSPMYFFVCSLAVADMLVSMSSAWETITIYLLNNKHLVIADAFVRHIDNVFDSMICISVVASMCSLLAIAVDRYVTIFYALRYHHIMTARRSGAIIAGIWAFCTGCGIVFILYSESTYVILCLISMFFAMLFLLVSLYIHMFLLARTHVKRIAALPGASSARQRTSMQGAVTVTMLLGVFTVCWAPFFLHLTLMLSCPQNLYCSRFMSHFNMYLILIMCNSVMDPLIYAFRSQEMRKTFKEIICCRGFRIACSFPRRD
Chain of Epidermal growth factor receptor (P00533 whole entry): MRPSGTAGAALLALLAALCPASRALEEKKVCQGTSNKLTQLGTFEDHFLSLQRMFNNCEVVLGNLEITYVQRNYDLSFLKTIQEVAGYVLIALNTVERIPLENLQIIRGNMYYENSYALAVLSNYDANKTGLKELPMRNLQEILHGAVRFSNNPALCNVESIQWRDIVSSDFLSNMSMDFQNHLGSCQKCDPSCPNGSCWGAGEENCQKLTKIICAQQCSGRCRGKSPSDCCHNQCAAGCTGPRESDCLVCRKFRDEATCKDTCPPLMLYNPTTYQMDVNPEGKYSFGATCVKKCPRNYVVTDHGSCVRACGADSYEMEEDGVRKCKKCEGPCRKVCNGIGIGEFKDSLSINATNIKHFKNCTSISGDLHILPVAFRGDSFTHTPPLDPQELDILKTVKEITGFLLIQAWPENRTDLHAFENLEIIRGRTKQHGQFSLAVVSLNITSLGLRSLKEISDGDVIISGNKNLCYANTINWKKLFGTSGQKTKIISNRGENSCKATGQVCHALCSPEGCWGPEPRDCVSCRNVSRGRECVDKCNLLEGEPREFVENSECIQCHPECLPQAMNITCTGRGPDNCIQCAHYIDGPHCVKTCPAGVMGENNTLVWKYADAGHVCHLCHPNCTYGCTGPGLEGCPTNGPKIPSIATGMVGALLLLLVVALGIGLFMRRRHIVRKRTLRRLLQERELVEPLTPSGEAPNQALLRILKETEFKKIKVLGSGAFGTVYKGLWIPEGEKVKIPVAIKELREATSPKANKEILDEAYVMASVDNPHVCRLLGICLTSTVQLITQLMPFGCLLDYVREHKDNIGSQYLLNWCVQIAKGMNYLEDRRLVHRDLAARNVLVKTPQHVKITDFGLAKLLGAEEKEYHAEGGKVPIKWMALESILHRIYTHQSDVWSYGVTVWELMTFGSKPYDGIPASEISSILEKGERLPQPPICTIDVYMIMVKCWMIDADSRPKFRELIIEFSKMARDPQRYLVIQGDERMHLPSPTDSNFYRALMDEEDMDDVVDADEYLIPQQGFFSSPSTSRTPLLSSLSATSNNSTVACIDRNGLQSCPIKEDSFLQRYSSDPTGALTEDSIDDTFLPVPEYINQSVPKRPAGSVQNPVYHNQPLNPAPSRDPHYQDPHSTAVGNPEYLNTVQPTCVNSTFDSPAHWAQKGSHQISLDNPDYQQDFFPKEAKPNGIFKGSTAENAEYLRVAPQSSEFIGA

CO[C@H]1/C=C/O[C@@]2(C)Oc3c(C)c(O)c4c(O)c(c(/C=N/N5CCN(C)CC5)c(O)c4c3C2=O)NC(=O)/C(C)=C\C=C\[C@H](C)[C@H](O)[C@@H](C)[C@@H](O)[C@@H](C)[C@H](OC(C)=O)[C@@H]1C [RIFAMPIN]
Not Active: all assays above

Cc1oncc1C(=O)Nc1ccc(C(F)(F)F)cc1 [LEFLUNOMIDE]
Not Active: all assays above
